The NIST ThermoML archive (doi:10.1021/je100381g)
± gives the expanded uncertainty stated by the source.

Conditions: Fluid (supercritical or subcritical phases)

A mass density (265 K, 967 kPa) of 12.355 ± 0.001 kg/m3, a mass density (265 K, 1937 kPa) of 24.865 ± 0.002 kg/m3 and a mass density (265 K, 3929 kPa) of 50.84 ± 0.002 kg/m3 were found for N#N [nitrogen] in this work. It also gave a mass density (265 K, 5996 kPa) of 77.972 ± 0.003 kg/m3, a mass density (265 K, 7985 kPa) of 104.063 ± 0.004 kg/m3 and a mass density (265 K, 9835 kPa) of 128.039 ± 0.004 kg/m3. The mass density (265 K, 15014 kPa) was 192.346 ± 0.006 kg/m3, the mass density (265 K, 20022 kPa) was 248.359 ± 0.008 kg/m3 and the mass density (265 K, 25019 kPa) was 297.183 ± 0.009 kg/m3. For the same compound, the mass density (265 K, 30006 kPa) was 339.165 ± 0.011 kg/m3, the mass density (265 K, 35119 kPa) was 376.198 ± 0.012 kg/m3 and the mass density (265 K, 50041 kPa) was 459.104 ± 0.014 kg/m3. It also gave a mass density (265 K, 74887 kPa) of 549.76 ± 0.017 kg/m3, a mass density (265 K, 100559 kPa) of 613.291 ± 0.019 kg/m3 and a mass density (293 K, 965 kPa) of 11.119 ± 0.001 kg/m3. It also gave a mass density (293 K, 1933 kPa) of 22.306 ± 0.002 kg/m3, a mass density (293 K, 3923 kPa) of 45.361 ± 0.002 kg/m3 and a mass density (293 K, 5988 kPa) of 69.244 ± 0.003 kg/m3. It also gave a mass density (293 K, 7971 kPa) of 91.982 ± 0.003 kg/m3, a mass density (293 K, 9822 kPa) of 112.91 ± 0.004 kg/m3 and a mass density (293 K, 14872 kPa) of 167.663 ± 0.006 kg/m3. For the same compound, the mass density (293 K, 19976 kPa) was 218.428 ± 0.007 kg/m3, the mass density (293 K, 24948 kPa) was 262.722 ± 0.008 kg/m3 and the mass density (293 K, 29965 kPa) was 302.337 ± 0.01 kg/m3. The mass density (293 K, 34993 kPa) was 337.389 ± 0.011 kg/m3, the mass density (293 K, 39916 kPa) was 367.801 ± 0.011 kg/m3 and the mass density (293 K, 50130 kPa) was 421 ± 0.013 kg/m3. For the same compound, the mass density (293 K, 74957 kPa) was 513.932 ± 0.016 kg/m3, the mass density (293 K, 99903 kPa) was 578.472 ± 0.018 kg/m3 and the mass density (293 K, 125585 kPa) was 628.863 ± 0.019 kg/m3. For the same compound, the mass density (293 K, 150976 kPa) was 668.88 ± 0.02 kg/m3, the mass density (298.15 K, 10005 kPa) was 112.564 ± 0.004 kg/m3 and the mass density (298.15 K, 30026 kPa) was 296.94 ± 0.009 kg/m3. It also gave a mass density (298.15 K, 49844 kPa) of 413.221 ± 0.013 kg/m3, a mass density (298.15 K, 74988 kPa) of 507.852 ± 0.016 kg/m3 and a mass density (298.15 K, 100175 kPa) of 573.318 ± 0.018 kg/m3. It also gave a mass density (298.15 K, 124825 kPa) of 622.069 ± 0.019 kg/m3, a mass density (298.15 K, 151239 kPa) of 664.101 ± 0.02 kg/m3 and a mass density (350 K, 2974 kPa) of 28.486 ± 0.002 kg/m3. The mass density (350 K, 4917 kPa) was 46.878 ± 0.002 kg/m3, the mass density (350 K, 5971 kPa) was 56.772 ± 0.002 kg/m3 and the mass density (350 K, 7481 kPa) was 70.762 ± 0.003 kg/m3. The mass density (350 K, 9976 kPa) was 93.531 ± 0.003 kg/m3, the mass density (350 K, 13786 kPa) was 127.029 ± 0.004 kg/m3 and the mass density (350 K, 17230 kPa) was 155.891 ± 0.005 kg/m3. The mass density (350 K, 20677 kPa) was 183.287 ± 0.006 kg/m3, the mass density (350 K, 24132 kPa) was 209.197 ± 0.007 kg/m3 and the mass density (350 K, 27582 kPa) was 233.51 ± 0.008 kg/m3. For the same compound, the mass density (350 K, 29848 kPa) was 248.687 ± 0.008 kg/m3, the mass density (350 K, 34691 kPa) was 279.018 ± 0.009 kg/m3 and the mass density (350 K, 49978 kPa) was 358.872 ± 0.011 kg/m3. It also gave a mass density (350 K, 74999 kPa) of 452.98 ± 0.014 kg/m3, a mass density (350 K, 99994 kPa) of 520.331 ± 0.016 kg/m3 and a mass density (350 K, 124395 kPa) of 571.157 ± 0.018 kg/m3. It also gave a mass density (350 K, 150364 kPa) of 614.997 ± 0.019 kg/m3, a mass density (400 K, 1004 kPa) of 8.432 ± 0.001 kg/m3 and a mass density (400 K, 1999 kPa) of 16.747 ± 0.002 kg/m3. It also gave a mass density (400 K, 2999 kPa) of 25.04 ± 0.002 kg/m3, a mass density (400 K, 4000 kPa) of 33.281 ± 0.002 kg/m3 and a mass density (400 K, 5001 kPa) of 41.463 ± 0.002 kg/m3. For the same compound, the mass density (400 K, 7000 kPa) was 57.573 ± 0.002 kg/m3, the mass density (400 K, 8004 kPa) was 65.564 ± 0.003 kg/m3 and the mass density (400 K, 10000 kPa) was 81.202 ± 0.003 kg/m3. For the same compound, the mass density (400 K, 14997 kPa) was 118.841 ± 0.004 kg/m3, the mass density (400 K, 19991 kPa) was 154.143 ± 0.005 kg/m3 and the mass density (400 K, 24998 kPa) was 187.116 ± 0.006 kg/m3. For the same compound, the mass density (400 K, 29991 kPa) was 217.621 ± 0.007 kg/m3, the mass density (400 K, 35015 kPa) was 246.029 ± 0.008 kg/m3 and the mass density (400 K, 40004 kPa) was 272.126 ± 0.009 kg/m3. It also gave a mass density (400 K, 49964 kPa) of 318.659 ± 0.01 kg/m3, a mass density (400 K, 59948 kPa) of 358.969 ± 0.011 kg/m3 and a mass density (400 K, 69931 kPa) of 394.143 ± 0.012 kg/m3. For the same compound, the mass density (400 K, 79958 kPa) was 425.322 ± 0.013 kg/m3, the mass density (400 K, 89963 kPa) was 453.061 ± 0.014 kg/m3 and the mass density (400 K, 99951 kPa) was 477.982 ± 0.015 kg/m3. It also gave a mass density (400 K, 110031 kPa) of 500.804 ± 0.015 kg/m3 and a mass density (400 K, 120573 kPa) of 522.585 ± 0.016 kg/m3.
